Patent publication US5386017A, “Alkenes for producing chemiluminescent 1, 2-dioxetane compounds” (priority 1990, dated 1995)

Columns and labels:
[1] = format: physicochemical; conditions: for Ea: activation energy for decomposition in xylene; for log A / k (sec^-1) at 25° C. / t1/2 at 25° C.: decomposition in xylene
Procedure: Rates of dioxetane decomposition were monitored by the decay of chemiluminescence of aerated solutions. A cylindrical Pyrex vial equipped with magnet stir bar was filled with 3-4 mL of the reaction solvent, sealed with a Teflon-lined screw cap and placed in the thermostatted sample block of the chemiluminescence-measuring apparatus (Black Box). Temperature control was provided by an external circulating water bath. Appropriate values for the instrument gain and optical slit size were selected. […]. The vial was sealed with a Teflon-lined screw cap to prevent evaporation when high temperatures were used. Measurement of the signal was begun by opening the shutter. The chemiluminescent decay was generally recorded for at least three half-lives. Calculation of the first-order rate constant, k, from the In(Intensity) vs. time data was performed by a computer program utilizing a standard least-squares treatment. The correlation coefficient, r, was typically at least 0.999 and varied less than 5% between replicate samples. The observed rate was not measurably concentration dependent.
Activation parameters for decomposition of the dioxetanes were calculated from plots of In k vs. l/T (Arrhenius eq.) or In k/t vs. l/T (Eyring eq.) by a standard least-squares linear regression analysis.

[2] = test system: Aryl esterase (carboxylic ester hydrolase) from porcine liver; experiment: Enzymatic triggering of chemiluminescence with aryl esterase; format: biochemical; conditions: for effect of competing substrate on light intensity of dioxetane 2e reaction: 10 μL of […] added at maximum emission, pH 7.6 phosphate buffer, 37° C.
Procedure: A secondary stock solution of the acetate-protected dioxetane 2e was made by evaporating an aliquot of the methylene chloride stock equivalent to 10 micromoles of dioxetane and dissolving in 5.0 mL of 2-methoxyethanol to give a final concentration of 0.002M. […] Buffer solutions prepared in distilled water were 0.05M phosphate pH 7.6 and 8.0, 0.02M Tris (tris-hydroxymethylaminomethane maleate) pH 7.6, and pH 9.0 phosphate/borate buffer. Aryl esterase (also called carboxylic ester hydrolase (P-5221)) from porcine liver was purchased from Sigma Chemical Co. as a suspension of 11 mg of protein per mL in 3.2M (NH4)2 SO4 solution pH 8.0. Each mg of protein is equivalent to 260 Units, where 1 Unit is defined as the amount which will hydrolyze 1 micromole of ethyl butyrate in 1 minute at pH 8.0, 25° C. […] Injection of 1 μL of (0.26 units) of aryl esterase to the stirred solution caused a chemiluminescent signal to appear. The intensity reached a maximum at about 3 minutes and decayed over a 30 minute period.
3.) When distilled water was substituted for the Tris buffer, no chemiluminescence signal was observed, but on adding Tris buffer to this solution light emission similar to that above was produced. […] Addition of untreated enzyme preparation to this solution again produced light. […] The emission could be totally extinguished by addition of sufficient SDS. The decrease in light emission is not due to photophysical quenching of the excited state since thermal decomposition in the same solvent system at elevated temperatures results in readily detectable chemiluminescence.
This type of behavior explains the effect of the addition of the known esterase substrates α-naphthyl acetate and β-naphthyl acetate. […] A solution of 25 μL of the dioxetane stock (0.002M) in 3 mL of pH 7.6 phosphate buffer maintained at 37° C. was treated wtih 5μL of the enzyme to initiate the chemiluminescence. At the point of maximum emission 10 μL of 0.011M solution of either α- or β-naphthyl acetate were added.

[3] = 25° C.; cited from earlier work
[4] = 0.26 units aryl esterase, pH 7.6 Tris buffer, 25° C.

SMILES: COC1(c2ccc3cc(O)ccc3c2)OOC12C1CC3CC(C1)CC2C3 (centres unmarked) [Dioxetane 2b, 4-(6-Hydroxy-2-naphthyl)-4-methoxyspiro[1,2-dioxetane-3,2'-adamantane]]
- Ea [1]: 29.7
- log A [1]: 13.3
- k (sec^-1) at 25° C. [1]: 3.83e-09 s⁻¹
- t1/2 at 25° C. [1]: 5.7 yrs

SMILES: COC1(c2ccc3cc(OC(C)=O)ccc3c2)OOC12C1CC3CC(C1)CC2C3 (centres unmarked) [Dioxetane 2e, 4-(6-Acetoxy-2-naphthyl)-4-methoxyspiro[1,2-dioxetane-3,2' -adamantane]]
- chemiluminescence signal without enzyme ([2]; 0.3 μmol in 3.0 mL pH 7.6 Tris buffer, 25° C., before enzyme): no chemiluminescence signal was detected
- period of decay of chemiluminescence [2, 4]: 30 min
- time to maximum chemiluminescence intensity [2, 4]: about 3 minutes
- duration of thermal chemiluminescence ([1]; aliquot in 3 mL o-xylene at 95° C.): persisted for several hours

SMILES: CC(=O)Oc1cccc2ccccc12 [α-naphthyl acetate, reference compound]
- effect of competing substrate on light intensity of dioxetane 2e reaction [2]: rapid decrease in light intensity was noted followed by restoration of the original intensity within less than one minute

SMILES: COC1(c2ccc3cc(O[Si](C)(C)C(C)(C)C)ccc3c2)OOC12C1CC3CC(C1)CC2C3 (centres unmarked) [Dioxetane 2c]
- Ea [1]: 27.0
- log A [1]: 11.7
- k (sec^-1) at 25° C. [1]: 8.72e-09 s⁻¹
- t1/2 at 25° C. [1]: 2.5 yrs

SMILES: CC(=O)Oc1ccc2ccccc2c1 [β-naphthyl acetate, reference compound]
- effect of competing substrate on light intensity of dioxetane 2e reaction [2]: rapid decrease in light intensity was noted followed by restoration of the original intensity within less than one minute

SMILES: COC1(c2ccc3ccccc3c2)OOC12C1CC3CC(C1)CC2C3 (centres unmarked) [Dioxetane 2a, 4-Methoxy-4-(2-naphthyl)spiro[1,2-dioxetane-3,2'-adamantane]]
- Ea [1]: 29.7
- log A [1]: 13.2
- k (sec^-1) at 25° C. [1]: 3.17e-09 s⁻¹
- t1/2 at 25° C. [1]: 6.9 yrs

SMILES: Oc1ccc(C23OCCOC2(c2ccccc2)OO3)cc1 (centres unmarked) [deprotonated dioxetane (X=O^-)]
- decomposition rate relative to the protonated form (X=OH) [3]: 5.7×10^6 times faster

SMILES: CCCCCCCCCCCCOS(=O)(=O)[O-].[Na+] [sodium lauryl sulfate (SDS), sodium lauryl sulfate, reference compound]
- effect of enzyme inhibitor on light emission ([2]; added at maximum emission, Tris buffer, 1.5 μL enzyme): irreversible decrease in the intensity
